From patent US20100179225A1, “POI Prevention” (CYTOKINE PHARMASCIENCES, INC., priority 2008, published 2010)

How the values were obtained:
MIP-1α mRNA = assay: Proinflammatory gene expression in ME, real-time RT-PCR: MIP-1α; assay type: in vivo, mice; conditions: 5 mg/kg i.v. preoperative, vs placebo IM
Source text: (§1) The small bowel of the animals was subjected to a standardized, surgical manipulation (IM) as described previously (Kalff J C, Schraut W H, Simmons R L et al. Surgical manipulation of the gut elicits an intestinal muscularis inflammatory response resulting in postsurgical ileus. Ann Surg 1998; 228:652-663; Wehner S, Schwarz N T, Hundsdoerfer R et al. Induction of IL-6 within the rodent intestinal muscularis after intestinal surgical stress. Surgery 2005; 137:436-446). In brief, after anesthesia a midline abdominal incision was made into the peritoneal cavity. […]
(§2) Proinflammatory gene expression was analyzed in placebo and CNI-1493 (5 mg/kg) treated animals at 1, 3, 6 and 24 hours after operation; n=5-7 each group. […] Total RNA was analyzed in ME specimen that was prepared as described before (Wehner S, Behrendt F F, Lyutenski B N et al. Inhibition of macrophage function prevents intestinal inflammation and postoperative ileus in rodents. Gut 2007; 56:176-185). […] Expression of mRNA was quantified in triplicate by a RT-PCR with gene expression assays for […] (MCP-1; #Mm00441242_m1), CCL3 (MIP-1α #Mm00441258_m1), IL-6 (Assay ID #Mm00446190_ml), TNF-α (#Mm00443258_m1) and ICAM-1 (#Mm00516023_m1). […] Data quantification was performed by the ΔΔCT method. […]

IL-6 mRNA = assay: Proinflammatory gene expression in ME, real-time RT-PCR: IL-6; assay type: in vivo, mice; conditions: 5 mg/kg i.v. preoperative; 6 hours after IM; vs placebo IM
Source text: as §1, §2

MCP-1 mRNA = assay: Proinflammatory gene expression in ME, real-time RT-PCR: MCP-1; assay type: in vivo, mice; conditions: 5 mg/kg i.v. preoperative
Source text: The small bowel of the animals was subjected to a standardized, surgical manipulation (IM) as described previously (Kalff J C, Schraut W H, Simmons R L et al. Surgical manipulation of the gut elicits an intestinal muscularis inflammatory response resulting in postsurgical ileus. Ann Surg 1998; 228:652-663; Wehner S, Schwarz N T, Hundsdoerfer R et al. Induction of IL-6 within the rodent intestinal muscularis after intestinal surgical stress. Surgery 2005; 137:436-446). In brief, after anesthesia a midline abdominal incision was made into the peritoneal cavity. The entire small bowel was eventuated and manipulated with standardized moderate intensity using two moist cotton applicators as described previously. After IM, the laparotomy was closed by one layer of continuous suture, except when probe sampling was conducted within 20 minutes after surgery. These animals were held in anesthesia and the abdomen was closed by a clamp and protected with sterile gauze. All other animals recovered rapidly from the bowel manipulation procedure. Control animals exclusively underwent laparotomy without eventration and IM (sham operation).
Animals within examples referring to FIGS. 2-9 were treated 90 minutes before operation with 0 mg/kg (placebo group), or 5 mg/kg bodyweight CNI-1493. […]
as §2

C57BL/6J mice = assay: Anastomotic wound healing (hydroxyproline content, bursting pressure), mouse; assay type: in vivo; conditions: 5 mg/kg i.v. 90 minutes before transection; POD 2, 5 and 10
Method: C57BL/6J mice were treated with 0 mg/kg (placebo) or 5 mg/kg CNI-1493 90 minutes before colonic transection followed by an anastomosis with 8-10 interrupted polypropylene 8.0 sutures. On postoperative days (POD) 2, 5 and 10 anastomotic tissue was investigated for disturbances of wound healing by measurement of hydroxyproline content and bursting pressure.
Hydroxyproline content was determined from an 1 cm perianastomotic region as described before (Woessner J. F., Jr. The determination of hydroxyproline in tissue and protein samples containing small proportions of this imino acid. Arch Biochem Biophys 1961; 93:440-447). Results were normalized as micrograms of hydroxyproline per gram tissue.
Anastomotic bursting pressure (ABP) was measured directly after sacrifice and sampling a 3 cm colonic segment including the anastomotic site. The anastomotic specimen was cleared from feces and ligated twice at the distal end using a 6-0 polyglactin (Vicryl™, Ethicon, Belgium) suture. An 18 G arterial catheter (Vygon, France) was inserted intraluminally within the specimen at the proximal end and two stay sutures were tied to prevent leakage. […] The intraluminal pressure (mmHg) was measured and recorded using a pressure transducer with an amplifier and recorded by the Biopac A/D systems (Biopac Systems, Goleta, USA). […]

swine = assay: Gastrointestinal transit in swine (radio-opaque globes, geometric center) after IM; assay type: in vivo; conditions: 24 h after operation, mean+/−SEM
Method: Swine were fed with CPSI 2364 or placebo 14 hours and three hours before operation. In the iv group, CPSI 2364 was applied once two hours before operation. All animals were fed (non fasted). After premedication animals were intubated and a central venous catheter was applied. A laparotomy was performed under sterile conditions. The whole small bowel was eventrated and manipulated twice from duodenum to cecum between two fingers. In the sham group, a laparotomy was performed without intestinal manipulation. At the end of the operation, 15 radio-opaque globes were placed in the proximal small bowel. The abdominal wall was closed and swine were brought to an intensive care unit.
Swine underwent intestinal manipulation (IM) or laparotomy without IM (Sham). CPSI-2364 (1 mg/kg) or placebo (mannitol 2.5%) were administered orally (p.o.) twice at 14 hours and 3 hours before operation or intravenously (i.v.) once at 2 hours before operation. At the end of the operation, 15 radio-opaque globes were placed in the proximal small bowel. Twenty-four hours after operation animals were sacrificed and the radio-opaque globes were detected by x-rays radiography and the distribution along the gastrointestinal tract was calculated as the geometric center **p<0.001 vs. indicated probes by 1-way ANOVA followed by Bonferroni's post test. […]

## C/C(=N\N=C(N)N)c1cc(NC(=O)CCCCCCCCC(=O)Nc2cc(/C(C)=N/N=C(N)N)cc(/C(C)=N/N=C(N)N)c2)cc(/C(C)=N/N=C(N)N)c1.Cl.Cl.Cl.Cl [CNI-1493]
MIP-1α mRNA; 3 hours after IM
  reduction of MIP-1α expression: 50%
MIP-1α mRNA; 6 hours after IM
  reduction of MIP-1α expression: 39%
IL-6 mRNA
  IL-6 expression diminished: more than 55%
MCP-1 mRNA; 3 hours after IM
  MCP-1 mRNA expression (fold upregulation): 142±45 fold
MCP-1 mRNA; 6 hours after IM
  MCP-1 mRNA expression (fold upregulation): 317±143 fold
MCP-1 mRNA; 24 hours after IM
  MCP-1 mRNA expression (fold upregulation): 92±44 fold
C57BL/6J mice
  anastomotic bursting pressure vs placebo: did not differ at any time
  anastomotic hydroxyproline content vs placebo: did not differ at any time

## C/C(=N\N=C(N)N)c1cc(NC(=O)CCCCCCCCC(=O)Nc2cc(/C(C)=N/N=C(N)N)cc(/C(C)=N/N=C(N)N)c2)cc(/C(C)=N/N=C(N)N)c1.CS(=O)(=O)O.CS(=O)(=O)O.CS(=O)(=O)O.CS(=O)(=O)O [CPSI-2364]
swine; 1 mg/kg i.v. once at 2 hours before operation
  gastrointestinal transit, geometric center (GC): 14.01+/−0.44
swine; 1 mg/kg p.o. twice at 14 hours and 3 hours before operation
  gastrointestinal transit, geometric center (GC): 13.00+/−0.27
